Data: paper PMC7156458, “Synthetic biology based construction of biological activity-related library of fungal decalin-containing diterpenoid pyrones” (Nature Communications, 2020)

Target: Aβ42 (Homo sapiens, UniProt P05067)
Assay: Th-T (thioflavin-T) assay of Aβ42 aggregation
Type: biochemical
Details: for Th-T assay plate reading, mean of three wells (Supplementary Fig. 47): source data, Ab alone and No Ab as controls

Chain of Aβ42 (P05067 672-713): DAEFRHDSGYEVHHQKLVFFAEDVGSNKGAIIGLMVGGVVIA

For C=C1CCC2C(C)(CCC=C(C)C)C(O)CCC2(C)C1Cc1c(O)c(C)c(C)oc1=O (stereo not drawn) [Compound 4], the “Th-T fluorescence, mean of three wells” value (Aβ42 aggregation time course, reading M117) was 2.764, the “Th-T fluorescence, mean of three wells” value (Aβ42 aggregation time course, reading M118) was 2.782 and the “Th-T fluorescence, mean of three wells” value (Aβ42 aggregation time course, reading M119) was 2.76. For the same compound, the “Th-T fluorescence, mean of three wells” value (Aβ42 aggregation time course, reading M120) was 2.773, the “Th-T fluorescence, mean of three wells” value (Aβ42 aggregation time course, reading M121) was 2.751 and the “Th-T fluorescence, mean of three wells” value (Aβ42 aggregation time course, reading M122) was 2.756. For the same compound, the “Th-T fluorescence, mean of three wells” value (Aβ42 aggregation time course, reading M123) was 2.7381, the “Th-T fluorescence, mean of three wells” value (Aβ42 aggregation time course, reading M124) was 2.734 and the “Th-T fluorescence, mean of three wells” value (Aβ42 aggregation time course, reading M125) was 2.771. The “Th-T fluorescence, mean of three wells” value (Aβ42 aggregation time course, reading M126) was 2.764, the “Th-T fluorescence, mean of three wells” value (Aβ42 aggregation time course, reading M127) was 2.744 and the “Th-T fluorescence, mean of three wells” value (Aβ42 aggregation time course, reading M128) was 2.737. The “Th-T fluorescence, mean of three wells” value (Aβ42 aggregation time course, reading M129) was 2.759, the “Th-T fluorescence, mean of three wells” value (Aβ42 aggregation time course, reading M130) was 2.729 and the “Th-T fluorescence, mean of three wells” value (Aβ42 aggregation time course, reading M131) was 2.75. The “Th-T fluorescence, mean of three wells” value (Aβ42 aggregation time course, reading M132) was 2.778, the “Th-T fluorescence, mean of three wells” value (Aβ42 aggregation time course, reading M133) was 2.76 and the “Th-T fluorescence, mean of three wells” value (Aβ42 aggregation time course, reading M134) was 2.744. The “Th-T fluorescence, mean of three wells” value (Aβ42 aggregation time course, reading M135) was 2.723, the “Th-T fluorescence, mean of three wells” value (Aβ42 aggregation time course, reading M136) was 2.752 and the “Th-T fluorescence, mean of three wells” value (Supplementary Fig. 47, reading M137) was 2.732. For the same compound, the “Th-T fluorescence, mean of three wells” value (Supplementary Fig. 47, reading M138) was 2.752, the “Th-T fluorescence, mean of three wells” value (Supplementary Fig. 47, reading M139) was 2.7362 and the “Th-T fluorescence, mean of three wells” value (Supplementary Fig. 47, reading M140) was 2.723. The “Th-T fluorescence, mean of three wells” value (Supplementary Fig. 47, reading M141) was 2.765, the “Th-T fluorescence, mean of three wells” value (Supplementary Fig. 47, reading M142) was 2.731 and the “Th-T fluorescence, mean of three wells” value (Supplementary Fig. 47, reading M143) was 2.798. For the same compound, the “Th-T fluorescence, mean of three wells” value (Supplementary Fig. 47, reading M144) was 2.748, the “Th-T fluorescence, mean of three wells” value (Supplementary Fig. 47, reading M145) was 2.777 and the “Th-T assay plate reading, mean of three wells (Supplementary Fig. 47)” value (shortened to “Th-T assay plate reading, mean”) (measurement M1) was 0.3186. For the same compound, the “Th-T assay plate reading, mean” value (measurement M2) was 0.3159, the “Th-T assay plate reading, mean” value (measurement M3) was 0.3554 and the “Th-T assay plate reading, mean” value (measurement M4) was 0.4086. The “Th-T assay plate reading, mean” value (measurement M5) was 0.4658, the “Th-T assay plate reading, mean” value (measurement M6) was 0.5438 and the “Th-T assay plate reading, mean” value (measurement M7) was 0.6121. For the same compound, the “Th-T assay plate reading, mean” value (measurement M8) was 0.6677, the “Th-T assay plate reading, mean” value (measurement M9) was 0.6972 and the “Th-T assay plate reading, mean” value (measurement M10) was 0.7395. The “Th-T assay plate reading, mean” value (measurement M11) was 0.7934, the “Th-T assay plate reading, mean” value (measurement M12) was 0.8591 and the “Th-T assay plate reading, mean” value (measurement M13) was 0.9703. For the same compound, the “Th-T assay plate reading, mean” value (measurement M14) was 1.131, the “Th-T assay plate reading, mean” value (measurement M15) was 1.366 and the “Th-T assay plate reading, mean” value (measurement M16) was 1.644. The “Th-T fluorescence, mean of three wells” value (reading M17, Supplementary Fig. 47 source data) was 1.91, the “Th-T fluorescence, mean of three wells” value (time-course reading M97, Supplementary Fig. 47 source data) was 2.7952 and the “Th-T fluorescence, mean of three wells” value (time-course reading M98, Supplementary Fig. 47 source data) was 2.787. For the same compound, the “Th-T fluorescence, mean of three wells” value (time-course reading M99, Supplementary Fig. 47 source data) was 2.818, the “Th-T fluorescence, mean of three wells” value (time-course reading M100, Supplementary Fig. 47 source data) was 2.783 and the “Th-T fluorescence, mean of three wells” value (time-course reading M101, Supplementary Fig. 47 source data) was 2.764. For the same compound, the “Th-T fluorescence, mean of three wells” value (time-course reading M102, Supplementary Fig. 47 source data) was 2.765, the “Th-T fluorescence, mean of three wells” value (time-course reading M103, Supplementary Fig. 47 source data) was 2.763 and the “Th-T fluorescence, mean of three wells” value (time-course reading M104, Supplementary Fig. 47 source data) was 2.782. The “Th-T fluorescence, mean of three wells” value (time-course reading M105, Supplementary Fig. 47 source data) was 2.776, the “Th-T fluorescence, mean of three wells” value (time-course reading M106, Supplementary Fig. 47 source data) was 2.782 and the “Th-T fluorescence, mean of three wells” value (time-course reading M107, Supplementary Fig. 47 source data) was 2.786. The “Th-T fluorescence, mean of three wells” value (time-course reading M108, Supplementary Fig. 47 source data) was 2.803, the “Th-T fluorescence, mean of three wells” value (time-course reading M109, Supplementary Fig. 47 source data) was 2.779 and the “Th-T fluorescence, mean of three wells” value (time-course reading M110, Supplementary Fig. 47 source data) was 2.789. The “Th-T fluorescence, mean of three wells” value (time-course reading M111, Supplementary Fig. 47 source data) was 2.786, the “Th-T fluorescence, mean of three wells” value (time-course reading M112, Supplementary Fig. 47 source data) was 2.79 and the “Th-T fluorescence, mean of three wells” value (time-course reading M113, Supplementary Fig. 47 source data) was 2.795. The “Th-T fluorescence, mean of three wells” value (time-course reading M114, Supplementary Fig. 47 source data) was 2.781, the “Th-T fluorescence, mean of three wells” value (time-course reading M115, Supplementary Fig. 47 source data) was 2.739 and the “Th-T fluorescence, mean of three wells” value (time-course reading M116, Supplementary Fig. 47 source data) was 2.771.
